Laboratory results published in ChEMBL document CHEMBL3045947, “Identification of Novel Non-nucleoside Reverse Transcriptase Inhibitors Using Fragment-based Lead Generation” (Med Chem Res, 2005).

Legend:
[1] = Selectivity index, ratio of CC50 for human MT4 cells to EC50 for HIV13B; assay type: toxicity, cell-based; conditions: read-out: Ratio CC50/EC50
[2] = Cytotoxicity against Homo sapiens (human) MT4 cells after 5 days by MTT assay; assay type: cell-based
[3] = system: Human immunodeficiency virus 1; experiment: Antiviral activity against Human immunodeficiency virus 1 IIIB infected human MT4 cells assessed as inhibition of virus-induced cytopathic effect after 7 days by MTT assay; assay type: functional, organism-based; conditions: MT4, 168 h

Nc1nc(-c2ccccc2)cc(-c2ccccc2O)n1
selectivity ratio [1]: 10
CC50 at 120 h [2]: 31.3 µM
EC50 [3]: 3.22 µM

Cc1ccc(-c2cc(-c3ccccc3O)nc(N)n2)cc1
CC50 at 120 h [2]: > 128 µM
EC50 [3]: > 125 µM

Nc1nc(-c2ccc(F)cc2)cc(-c2ccccc2O)n1
CC50 at 120 h [2]: 67.5 µM
EC50 [3]: > 67.5 µM

COc1ccc(-c2cc(-c3ccccc3O)nc(N)n2)cc1
CC50 at 120 h [2]: 92.2 µM
EC50 [3]: > 92.2 µM

Nc1nc(-c2ccc(Cl)cc2)cc(-c2ccccc2O)n1
CC50 at 120 h [2]: > 74.7 µM
EC50 [3]: > 74.7 µM

Cc1cccc(-c2cc(-c3ccccc3O)nc(N)n2)c1
selectivity ratio [1]: 4
CC50 at 120 h [2]: 13 µM
EC50 [3]: 3.45 µM

COc1cccc(-c2cc(-c3ccccc3O)nc(N)n2)c1
CC50 at 120 h [2]: > 78.3 µM
EC50 [3]: > 78.3 µM

Nc1nc(-c2cccc(Cl)c2)cc(-c2ccccc2O)n1
CC50 at 120 h [2]: > 125 µM
EC50 [3]: > 125 µM

COc1ccc(-c2cc(-c3ccccc3O)nc(N)n2)cc1OC
CC50 at 120 h [2]: 7.36 µM
EC50 [3]: > 7.36 µM

Nc1nc(-c2ccco2)cc(-c2ccccc2O)n1
CC50 at 120 h [2]: > 125 µM
EC50 [3]: > 125 µM

Nc1nc(-c2cccs2)cc(-c2ccccc2O)n1
CC50 at 120 h [2]: 5.3 µM
EC50 [3]: 5.59 µM
